Experimental data as given in publication PMC9916969 (International Journal of Molecular Sciences, 2023).
Several values for one entry are separate records, joined by “and”; a condition that tells them apart may be missing. Equal values may be shown once.

Key:
FRAP assay = details: Trolox equivalents; 60 min, 37 °C; n.a. = not active
Method: The Ferric Reducing Antioxidant Power (FRAP) test involves reduction of the ferric 2,4,6-tripyridyl-s-triazine complex [Fe(TPTZ)2]^3+ to an intense-blue ferrous complex [Fe(TPTZ)2]^2+ [92], as previously reported. Results are given as Trolox Equivalents (TE).
The FRAP (ferric reducing antioxidant power) assay proposed by Benzie and Strain [92] was modified to be performed in 96-well microplates as described in detail in [53]. The FRAP reagent contained 2.5 mL of 10 mM TPTZ (2,4,6-tris(2-pyridyl)-s-triazine, Sigma-Aldrich) solution in 40 mM HCl, 2.5 mL of 20 mM FeCl3 (Sigma-Aldrich) in distilled water and 25 mL of 0.3 M acetate buffer (pH 3.6). Aliquots of 10 µL of the test compound dissolved in DMSO (0.5 mM) were placed in quadruplicate. Absorbance was measured at a wavelength of 593 nm after 60 min incubation at 37 °C. In each case, Trolox was used as a reference compound to obtain the standard curve. The AO activity was calculated with respect to the activity of Trolox and expressed as Trolox equivalents (TE)—the values calculated as the ratio of the concentrations of Trolox and the test compound resulting in the same effect on ferric reducing activity.

[1] = ABTS radical cation scavenging assay; parameters: key to ABTS^•+ Scavenging Activity, TEAC: TEAC: ratio of compound slope to Trolox slope (Trolox equivalents); details: 1 h incubation; for IC50: 50% reduction of ABTS radical cation; for ABTS^•+ Scavenging Activity, TEAC: Trolox equivalent, n.a. = not active
Method: In the ABTS assay, the dark-green ABTS cation-radical (ABTS^•+) is quenched by interaction with AOs. The consequent decrease in absorbance is followed spectrophotometrically per the previously described method.
Radical scavenging activity of the compounds was assessed using the ABTS radical cation (ABTS^•+) decolorization assay with some modifications. ABTS (2,2′-azinobis-(3-ethylbenzothiazoline-6-sulfonic acid) was purchased from Tokyo Chemical Industry Co., Ltd. (Tokyo, Japan); potassium persulfate (dipotassium peroxodisulfate), Trolox (6-hydroxy-2,5,7,8-tetramethylchroman-2-carboxylic acid), and HPLC-grade ethanol and DMSO were obtained from Sigma-Aldrich (Saint Louis, MO, USA). Aqueous solutions were prepared using deionized water. All tested compounds were dissolved in DMSO.
The solution of cation radical ABTS^•+ was produced by incubation of an aqueous solution of 7 mM ABTS and 2.45 mM potassium persulfate solution in equal quantities for 12–16 h at room temperature in the dark. Radical scavenging capacity of the compounds was analyzed by mixing 10 μL of compound with 240 μL of ABTS^•+ working solution in ethanol (100 μM final concentration). The reaction was monitored for an hour at 30 °C with an interval of 10 min. Data are given for 1 h of incubation of compounds with ABTS^•+. The reduction in absorbance was measured spectrophotometrically at 734 nm using an xMark microplate UV/VIS spectrophotometer (Bio-Rad, Hercules, CA, USA). Ethanol blanks were run in each assay. Values were obtained from five replicates of each sample and three independent experiments.
The standard AO Trolox was used as a reference compound. AO capacity as Trolox equivalent (TEAC) values was determined as the ratio between the slopes obtained from the linear correlation of the ABTS radical absorbance with the concentrations of tested compounds and Trolox. Ascorbic acid was used as a positive control. […]. The compounds were tested in the concentration range of 0.5–100 µM.

β-amyloid (1–42) (Aβ42) = β-amyloid (1–42) (Aβ42) (Homo sapiens, UniProt P05067); assay: Inhibition of Aβ42 self-aggregation (thioflavin T); type: biochemical; details: Aβ42 50 µM; compound 100 µM; 24 h, 37 °C; thioflavin T; read-out: Inhibition of Aβ42 Self-Aggregation
Method: The inhibitory activity of tested hybrids against the self-aggregation of Aβ42 was determined in vitro using the thioflavin T (ThT) fluorimetric assay. According to [84], the ThT test is ideal for preliminary screening of inhibitors of Aβ42 self-aggregation, as it enables the quantitative testing of large numbers of compounds within a relatively short time.
The influence of the inhibitory effect of the test compounds toward Aβ42 self-aggregation was determined using the thioflavin T (ThT) fluorescence method with minor modifications. This assay is based on a specific interaction between the fluorescent dye thioflavin T that binds to the β-sheets of assembled amyloid fibrils leading to a significant increase in fluorescence signal. Therefore, the decrease in ThT fluorescence correlates with the ability of the studied compounds to inhibit the formation of amyloid aggregates.
One mg of lyophilized HFIP-pretreated Aβ42 from BACHEM (Bubendorf, Switzerland) was dissolved in DMSO to obtain a stable initial solution ([Aβ42] = 500 μM); then it was aliquoted and stored at −20 °C.
For the measurement of Aβ42 self-aggregation and amyloid fibril inhibition studies by the tested compounds, aliquots of 500 μM Aβ42 stock solution were diluted in 215 mM Na-phosphate buffer pH = 8.0 to a final concentration of 50 μM Aβ42. Then the samples were incubated for 24 h at 37 °C without stirring in the absence (base level of Aβ42 self-aggregation, control) or presence of the test compounds. Myricetin and propidium iodide were used as reference compounds (positive controls). All compounds were used in a concentration of 100 µM. To quantify Aβ42 fibril formation, after incubation, 5 μM ThT in 50 mM glycine-NaOH buffer pH 8.5 was added to the solutions to a final concentration of 4 μM ThT and the fluorescence was measured at 440 nm (excitation) and 485 nm (emission). Analyses were performed with a FLUOStar Optima microplate reader (LabTech, Ortenberg, Germany). The blanks consisted of 215 mM Na-phosphate buffer, pH = 8.0, 20% (v/v) DMSO or test compounds, respectively. Each assay was run in triplicate.

porcine liver CES = assay: In vitro CES inhibition (4-NPA substrate); type: biochemical; details: compound 20 µM, n.a. = not active
From the text: (§1) Assessment of the esterase profile of new potential anti-AD molecules enables the estimation of both the primary pharmacological effects of the tested compounds—their inhibition of AChE and BChE—and their possible unwanted side effect—inhibition of CES, which hydrolyzes numerous ester-containing drugs. For the esterase profile evaluation, human erythrocyte AChE, equine serum BChE, and porcine liver CES were used. These sources of BChE and CES were employed because of their relatively low cost, high sequence identity to human enzymes, and the exploratory character of this work.
(§2) Chromophore absorbances were measured with a FLUOStar Optima microplate reader (BMG Labtech, Ortenberg, Germany). […] Initially, we used a single concentration of 20 µM for all compounds.

EeAChE PAS = target: T1, EeAChE PAS (Electrophorus electricus, UniProt O42275); type: binding; details: compound 20 µM; EeAChE 7 µM; propidium iodide 8 µM
T1 construct: The enzyme was electric eel AChE (EeAChE type VI-S, lyophilized powder, Sigma-Aldrich); purchased Sigma-Aldrich type VI-S; host or cells: electric eel (tissue-derived)
From the text: This method is widely used as a screening approach to assess the potential ability of compounds to block AChE-induced β-amyloid aggregation. This is because when the compounds bind to the AChE PAS, they prevent the binding of β-amyloid, thereby inhibiting its aggregation.
The enzyme was electric eel AChE (EeAChE type VI-S, lyophilized powder, Sigma-Aldrich). We selected this source of AChE for consistency with our other reports and because of the purity, specific activity, and lower cost compared to human AChE.
Propidium iodide (final concentration 8 μM) was then added for a further 15 min incubation, and the fluorescence spectrum was taken (530 nm excitation and 600 nm emission) using a FLUOStar Optima microplate reader. The same concentration of propidium iodide in the Tris buffer was used as the blank. Triplicate determinations were recorded and the results were calculated via the following equation:% Displacement = 100 − (IFAChE+ Propidium + inhibitor/IFAChE + Propidium) × 100, where IFAChE + Propidium = fluorescence intensity of propidium iodide associated with AChE in the absence of the test compound (taken as 100%), and IFAChE + Propidium + inhibitor = fluorescence intensity of propidium iodide associated with AChE in the presence of the test compound.

eqBChE = target: T2, eqBChE (Equus caballus, UniProt P81908); assay: Kinetic study of BChE inhibition (Lineweaver-Burk); type: biochemical; details: mixed-type inhibition, mean ± SEM
T2 construct: human erythrocyte AChE, equine serum BChE, and porcine liver CES were used; purchased Sigma-Aldrich; host or cells: equine serum (tissue-derived)
Method: Similar results were obtained for other tested compounds (Figures S61 and S62). The obtained values of inhibition constants (Ki = competitive component and αKi = non-competitive component) are shown in Table 2.
(§3) We assessed the mechanisms of AChE and BChE inhibition by performing a thorough analysis of enzyme kinetics. After a 5 min incubation at 25 °C (for temperature equilibration) with three increasing concentrations of inhibitor and six decreasing substrate concentrations, the residual enzyme activity was measured as described above for enzymatic assays.

equine serum BChE = target: T3, equine serum BChE (Equus caballus, UniProt P81908); assay: biochemical; details: mean ± SEM, n = 3, read-out: Inhibitory activity against BChE, IC50
T3 construct: human erythrocyte AChE, equine serum BChE, and porcine liver CES were used; purchased Sigma-Aldrich; host or cells: equine serum (tissue-derived)
From the text: as §1, §2

AChE = target: T4, AChE (Homo sapiens, UniProt P22303); assay: Kinetic study of AChE inhibition (Lineweaver-Burk); type: biochemical; details: mixed-type inhibition; mean ± SEM
T4 construct: human erythrocyte AChE, equine serum BChE, and porcine liver CES were used; purchased Sigma-Aldrich; host or cells: human erythrocytes (tissue-derived)
Method: as §3

human erythrocyte AChE = target: T5, human erythrocyte AChE (Homo sapiens, UniProt P22303); assay: biochemical; details: mean ± SEM, n = 3, read-out: Inhibitory activity against AChE, IC50
T5 construct: human erythrocyte AChE, equine serum BChE, and porcine liver CES were used; purchased Sigma-Aldrich; host or cells: human erythrocytes (tissue-derived)
From the text: as §1, §2

Sequence of β-amyloid (1–42) (Aβ42) (P05067 672-713 limits assumed): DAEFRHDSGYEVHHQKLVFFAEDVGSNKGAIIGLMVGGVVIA
T3 sequence (P81908 whole entry): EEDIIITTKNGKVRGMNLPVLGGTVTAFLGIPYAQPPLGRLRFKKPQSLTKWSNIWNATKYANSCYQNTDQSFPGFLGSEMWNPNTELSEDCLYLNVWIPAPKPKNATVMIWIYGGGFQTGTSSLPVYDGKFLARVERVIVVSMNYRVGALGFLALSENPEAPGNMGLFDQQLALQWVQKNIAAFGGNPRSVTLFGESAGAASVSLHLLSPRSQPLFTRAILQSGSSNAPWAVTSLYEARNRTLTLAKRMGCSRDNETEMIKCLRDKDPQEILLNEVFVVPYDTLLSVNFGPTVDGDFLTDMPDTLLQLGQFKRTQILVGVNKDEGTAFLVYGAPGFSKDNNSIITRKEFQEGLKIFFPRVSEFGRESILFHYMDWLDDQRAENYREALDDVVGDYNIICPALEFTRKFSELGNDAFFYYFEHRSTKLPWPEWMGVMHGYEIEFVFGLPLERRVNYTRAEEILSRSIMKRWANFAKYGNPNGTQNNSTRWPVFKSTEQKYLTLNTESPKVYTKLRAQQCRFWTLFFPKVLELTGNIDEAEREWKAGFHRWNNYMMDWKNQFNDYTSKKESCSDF
T5 sequence (P22303 32-617 isoform P22303-2 limits assumed): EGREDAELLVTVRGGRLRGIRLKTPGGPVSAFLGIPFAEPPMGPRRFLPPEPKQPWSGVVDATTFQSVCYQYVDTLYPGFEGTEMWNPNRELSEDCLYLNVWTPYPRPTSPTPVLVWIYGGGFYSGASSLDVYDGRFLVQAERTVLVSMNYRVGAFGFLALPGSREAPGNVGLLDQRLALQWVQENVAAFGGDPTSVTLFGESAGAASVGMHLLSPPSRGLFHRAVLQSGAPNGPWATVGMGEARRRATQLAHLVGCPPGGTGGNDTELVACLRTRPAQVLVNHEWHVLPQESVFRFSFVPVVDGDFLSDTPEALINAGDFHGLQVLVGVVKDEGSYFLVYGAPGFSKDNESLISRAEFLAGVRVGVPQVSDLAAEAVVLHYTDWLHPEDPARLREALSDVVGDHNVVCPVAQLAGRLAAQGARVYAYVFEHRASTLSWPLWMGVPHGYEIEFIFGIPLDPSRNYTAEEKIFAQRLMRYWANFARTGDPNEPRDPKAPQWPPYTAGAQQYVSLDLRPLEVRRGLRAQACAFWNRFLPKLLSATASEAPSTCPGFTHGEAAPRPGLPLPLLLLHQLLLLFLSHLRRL
T1 sequence (O42275 24-633): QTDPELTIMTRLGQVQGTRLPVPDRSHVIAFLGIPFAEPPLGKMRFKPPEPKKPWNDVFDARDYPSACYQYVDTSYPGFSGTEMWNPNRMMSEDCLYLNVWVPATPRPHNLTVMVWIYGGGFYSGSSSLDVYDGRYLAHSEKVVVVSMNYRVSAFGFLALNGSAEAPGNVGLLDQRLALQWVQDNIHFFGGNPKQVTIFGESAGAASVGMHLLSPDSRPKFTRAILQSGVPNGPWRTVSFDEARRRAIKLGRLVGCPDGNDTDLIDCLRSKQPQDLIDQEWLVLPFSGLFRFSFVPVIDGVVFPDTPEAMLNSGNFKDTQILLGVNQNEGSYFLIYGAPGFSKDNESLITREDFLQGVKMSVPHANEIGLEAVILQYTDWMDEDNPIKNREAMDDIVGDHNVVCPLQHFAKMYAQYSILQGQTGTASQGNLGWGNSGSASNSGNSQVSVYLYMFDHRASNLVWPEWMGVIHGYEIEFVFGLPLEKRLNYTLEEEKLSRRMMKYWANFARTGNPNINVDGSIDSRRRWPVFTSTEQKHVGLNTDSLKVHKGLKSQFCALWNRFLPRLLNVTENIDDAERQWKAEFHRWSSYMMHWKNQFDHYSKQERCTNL
T2 sequence (P81908 whole entry): as the sequence (P81908 whole entry) above
T4 sequence (P22303 32-617 isoform P22303-2 limits assumed): as the sequence (P22303 32-617 isoform P22303-2 limits assumed) above

Structure (SMILES) | FRAP, TE (FRAP assay) | IC50 [1] [nM] | ABTS^•+ Scavenging Activity, TEAC [1] | inhibition at 100 µM (β-amyloid (1–42) (Aβ42)) [%] | Inhibitory activity against CES, inhibition at 20 µM (porcine liver CES) [%] | Propidium Displacement from EeAChE PAS (EeAChE PAS) [%] | αKi (non-competitive inhibition constant), eqBChE (eqBChE) [µM] | Ki (eqBChE; read-out: Ki (competitive inhibition constant), eqBChE) [nM] | IC50 (equine serum BChE) [nM] | αKi (non-competitive inhibition constant), AChE (AChE) [µM] | IC50 (human erythrocyte AChE) [nM]
O=C(NCCCCNc1c2c(nc3ccccc13)CCCC2)c1ccccc1O [5a] | 0.02 | 25300 ± 1100 | 0.73 ± 0.04 | 20.7 ± 1.6 | 1.6 ± 1.1 | 11.8 ± 0.9 | – | – | – | – | –
O=C(NCCCCCCCCNc1c2c(nc3ccccc13)CCCC2)c1ccccc1O [5c] | – | 25500 ± 1100 | 0.75 ± 0.04 | 71.9 ± 5.7 | 29.5 ± 2.5 | 14.2 ± 1.1 | 0.0171 ± 0.0013 | 10.6 ± 0.7 | 10.4 ± 1.3 | 0.263 ± 0.018 | –
COc1ccccc1C(=O)NCCCCNc1c2c(nc3ccccc13)CCCC2 [6a] | 0.03 | – | 0.02 (n.a.) | 12.3 ± 0.9 | 3.4 ± 0.7 | 10.2 ± 0.9 | – | – | 10.5 ± 0.7 | – | 1920 ± 130
O=C(NCCCCNc1c2c(nc3ccccc13)CCCC2)c1cc(F)c(F)cc1O [7a, 4,5-Difluoro-2-hydroxy-N-[4-(1,2,3,4-tetrahydroacridin-9-ylamino)butyl]benzamide] | – | > 200000 | 0.06 and 0.060 ± 0.002 | 17.4 ± 1.2 | 4.3 ± 0.9 | 10.4 ± 0.9 | – | – | 29.1 ± 2.2 | – | 500 ± 30
COc1cc(F)c(F)cc1C(=O)NCCCCNc1c2c(nc3ccccc13)CCCC2 [8a, 4,5-Difluoro-2-methoxy-N-[4-(1,2,3,4-tetrahydroacridin-9-ylamino)butyl]benzamide] | 0.03 | – | – | 10.4 ± 0.9 | 6.5 ± 1.1 | 13.2 ± 1.0 | – | – | 54.7 ± 3.4 | – | 1220 ± 70
